Source: patent publication US12686673B2 (Blueprint Medicines Corporation, priority 2020, dated 2026)
Counter-ions that a name gives are not always drawn. Like-named read-outs stand apart in the source and are kept apart here.

Key:
Type in all cases: cell-based
[1] = biological target: EGFR(D770_N771insSVD) expressing Ba/F3 stable cell line (Homo sapiens, UniProt P00533, DUP768-770, cells depend on it); test: Cellular proliferation (Alamar Blue) assay, EGFR D770_N771insSVD Ba/F3; settings: 72 hr, read-out: D770 IC50
Method in brief: (§1)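 Seventy-two-hour compound exposure (3-fold series, final 10–0.0005 μM) of mutant EGFR/HER2 Ba/F3 cells plated at 15,000/well in RPMI with 10% FBS. Alamar Blue added for 3 h at 37 °C as proliferation read-out.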

A431 cells = test: Cellular proliferation (Alamar Blue) assay, A431
[2] = biological target: HER2 (A775_G776insYVMA) expressing Ba/F3 stable cell line (Homo sapiens, UniProt P04626, DUP772-775, cells depend on it); test: Cellular proliferation (Alamar Blue) assay, HER2 A775_G776insYVMA Ba/F3; settings: 72 hr, read-out: YVMA IC50
Method in brief: as §1

[3] = biological target: EGFR (A767_dupASV) expressing Ba/F3 stable cell line (Homo sapiens, UniProt P00533, DUP767-769, cells depend on it); test: Cellular proliferation (Alamar Blue) assay, EGFR A767_dupASV Ba/F3; settings: 72 hr, read-out: A767 IC50
Method in brief: as §1

[4] = biological target: EGFR (H773insNPH) expressing Ba/F3 stable cell line (Homo sapiens, UniProt P00533, DUP771-773, cells depend on it); test: Cellular proliferation (Alamar Blue) assay, EGFR H773insNPH Ba/F3; settings: 72 hr, read-out: NPH IC50
Procedure: • 1. EGFR(D770_N771insSVD) expressing Ba/F3 stable cell line • 2. EGFR (A767_dupASV) expressing Ba/F3 stable cell line • 3. A431 cells • 4. EGFR (H773insNPH) expressing Ba/F3 stable cell line • 5. HER2 (A775_G776insYVMA) expressing Ba/F3 stable cell line Assay Procedure: • 1. Seed cells at 5000 for A431 and 15,000 cells for Ba/F3 in 100 μL/well in complete media (for A431: DMEM with […] and for Ba/F3 cells: RPMI with 10% FBS) in 96-well tissue culture plate. Leave outer wells without cells for background measurements. Incubate at 37 degree Celsius in […] humidified incubator for 16-18 hours. • 2. Add 0.025 ml of 5× concentration compound dilution or DMSO control. Final compound concentration range is 10-0.0005 μM prepared in 3-fold serial dilutions. Incubate for 72 hr at 37 degree Celsius in […] humidified incubator. • 3. Add 0.0125 ml Alamar Blue™ reagent to each well with multi-channel pipette and tap gently on each side of the plate to mix. Incubate for 3 hours at 37 degree Celsius in 5% CO2 humidified incubator. • 4. […] Data analysis was performed using XLfit 5.5.0.5.

[5] = Homo sapiens, A-431; A431 cells, Alamar Blue, 72 hr; read-out: A431 IC50
[6] = Homo sapiens, A-431; A431 cells, 72 hr, Alamar Blue; read-out: A431 IC50

Chain of EGFR(D770_N771insSVD) expressing Ba/F3 stable cell line (P00533 with tags, fused parts or gaps DUP768-770): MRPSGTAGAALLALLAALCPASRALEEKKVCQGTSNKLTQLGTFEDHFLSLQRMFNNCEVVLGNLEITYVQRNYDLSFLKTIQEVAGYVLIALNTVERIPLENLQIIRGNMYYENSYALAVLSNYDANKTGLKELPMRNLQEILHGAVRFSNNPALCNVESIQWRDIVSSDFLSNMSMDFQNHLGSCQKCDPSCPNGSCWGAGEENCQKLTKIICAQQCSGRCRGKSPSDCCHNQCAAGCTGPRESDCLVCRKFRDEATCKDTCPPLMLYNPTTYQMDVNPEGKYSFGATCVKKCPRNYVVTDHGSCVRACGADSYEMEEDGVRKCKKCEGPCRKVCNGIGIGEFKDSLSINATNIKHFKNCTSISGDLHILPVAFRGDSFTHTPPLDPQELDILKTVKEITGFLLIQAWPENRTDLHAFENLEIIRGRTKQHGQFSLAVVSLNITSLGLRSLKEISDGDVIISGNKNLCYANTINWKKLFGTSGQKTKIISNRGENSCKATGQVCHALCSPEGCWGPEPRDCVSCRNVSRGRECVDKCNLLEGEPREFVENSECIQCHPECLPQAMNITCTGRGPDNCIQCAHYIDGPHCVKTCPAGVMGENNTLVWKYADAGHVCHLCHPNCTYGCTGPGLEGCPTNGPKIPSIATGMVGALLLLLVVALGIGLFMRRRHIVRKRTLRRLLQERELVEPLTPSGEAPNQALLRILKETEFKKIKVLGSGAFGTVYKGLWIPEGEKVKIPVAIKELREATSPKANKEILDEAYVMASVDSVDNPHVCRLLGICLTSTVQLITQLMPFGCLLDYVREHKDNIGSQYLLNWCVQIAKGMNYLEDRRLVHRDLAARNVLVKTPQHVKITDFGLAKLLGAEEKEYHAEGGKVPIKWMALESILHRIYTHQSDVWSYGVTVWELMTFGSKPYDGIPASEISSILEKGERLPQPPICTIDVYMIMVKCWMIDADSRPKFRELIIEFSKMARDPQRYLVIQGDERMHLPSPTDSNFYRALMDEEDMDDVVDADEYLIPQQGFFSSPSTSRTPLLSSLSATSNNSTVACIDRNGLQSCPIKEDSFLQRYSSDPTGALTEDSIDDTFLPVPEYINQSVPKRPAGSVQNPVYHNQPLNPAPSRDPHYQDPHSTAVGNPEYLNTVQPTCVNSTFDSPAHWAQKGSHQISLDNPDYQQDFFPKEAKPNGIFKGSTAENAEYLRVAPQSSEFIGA
Chain of EGFR (H773insNPH) expressing Ba/F3 stable cell line (P00533 with tags, fused parts or gaps DUP771-773): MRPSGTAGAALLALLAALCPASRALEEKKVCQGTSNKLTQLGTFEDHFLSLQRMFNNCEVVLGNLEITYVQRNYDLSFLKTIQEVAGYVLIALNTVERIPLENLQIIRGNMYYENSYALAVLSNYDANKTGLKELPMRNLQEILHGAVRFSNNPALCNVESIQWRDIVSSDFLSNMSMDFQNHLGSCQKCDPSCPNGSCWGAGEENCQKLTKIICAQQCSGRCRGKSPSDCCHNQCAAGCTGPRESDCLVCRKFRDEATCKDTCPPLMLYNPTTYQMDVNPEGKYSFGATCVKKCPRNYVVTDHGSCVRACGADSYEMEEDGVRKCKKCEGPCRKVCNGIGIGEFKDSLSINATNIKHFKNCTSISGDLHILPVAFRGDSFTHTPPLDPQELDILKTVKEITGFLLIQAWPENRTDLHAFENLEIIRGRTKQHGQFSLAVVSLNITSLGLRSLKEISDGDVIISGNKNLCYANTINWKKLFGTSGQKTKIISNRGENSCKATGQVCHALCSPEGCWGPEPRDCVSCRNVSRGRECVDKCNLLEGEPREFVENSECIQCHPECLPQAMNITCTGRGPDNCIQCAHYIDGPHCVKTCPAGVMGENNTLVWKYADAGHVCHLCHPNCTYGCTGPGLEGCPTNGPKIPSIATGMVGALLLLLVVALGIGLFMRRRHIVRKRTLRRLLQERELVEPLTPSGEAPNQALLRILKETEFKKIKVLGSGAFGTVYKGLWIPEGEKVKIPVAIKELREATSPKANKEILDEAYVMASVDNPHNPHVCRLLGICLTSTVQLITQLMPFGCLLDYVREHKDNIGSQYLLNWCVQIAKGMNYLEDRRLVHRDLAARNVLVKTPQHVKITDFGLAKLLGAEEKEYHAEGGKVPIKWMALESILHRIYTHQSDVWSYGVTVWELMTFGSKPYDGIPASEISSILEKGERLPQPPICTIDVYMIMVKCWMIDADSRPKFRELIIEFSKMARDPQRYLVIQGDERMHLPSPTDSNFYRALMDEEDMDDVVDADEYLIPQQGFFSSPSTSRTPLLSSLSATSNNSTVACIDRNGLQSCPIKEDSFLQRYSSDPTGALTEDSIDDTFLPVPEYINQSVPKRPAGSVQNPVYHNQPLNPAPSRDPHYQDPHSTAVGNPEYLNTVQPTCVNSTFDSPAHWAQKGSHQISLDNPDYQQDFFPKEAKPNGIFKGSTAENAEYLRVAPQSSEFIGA
Chain of HER2 (A775_G776insYVMA) expressing Ba/F3 stable cell line (P04626 with tags, fused parts or gaps DUP772-775): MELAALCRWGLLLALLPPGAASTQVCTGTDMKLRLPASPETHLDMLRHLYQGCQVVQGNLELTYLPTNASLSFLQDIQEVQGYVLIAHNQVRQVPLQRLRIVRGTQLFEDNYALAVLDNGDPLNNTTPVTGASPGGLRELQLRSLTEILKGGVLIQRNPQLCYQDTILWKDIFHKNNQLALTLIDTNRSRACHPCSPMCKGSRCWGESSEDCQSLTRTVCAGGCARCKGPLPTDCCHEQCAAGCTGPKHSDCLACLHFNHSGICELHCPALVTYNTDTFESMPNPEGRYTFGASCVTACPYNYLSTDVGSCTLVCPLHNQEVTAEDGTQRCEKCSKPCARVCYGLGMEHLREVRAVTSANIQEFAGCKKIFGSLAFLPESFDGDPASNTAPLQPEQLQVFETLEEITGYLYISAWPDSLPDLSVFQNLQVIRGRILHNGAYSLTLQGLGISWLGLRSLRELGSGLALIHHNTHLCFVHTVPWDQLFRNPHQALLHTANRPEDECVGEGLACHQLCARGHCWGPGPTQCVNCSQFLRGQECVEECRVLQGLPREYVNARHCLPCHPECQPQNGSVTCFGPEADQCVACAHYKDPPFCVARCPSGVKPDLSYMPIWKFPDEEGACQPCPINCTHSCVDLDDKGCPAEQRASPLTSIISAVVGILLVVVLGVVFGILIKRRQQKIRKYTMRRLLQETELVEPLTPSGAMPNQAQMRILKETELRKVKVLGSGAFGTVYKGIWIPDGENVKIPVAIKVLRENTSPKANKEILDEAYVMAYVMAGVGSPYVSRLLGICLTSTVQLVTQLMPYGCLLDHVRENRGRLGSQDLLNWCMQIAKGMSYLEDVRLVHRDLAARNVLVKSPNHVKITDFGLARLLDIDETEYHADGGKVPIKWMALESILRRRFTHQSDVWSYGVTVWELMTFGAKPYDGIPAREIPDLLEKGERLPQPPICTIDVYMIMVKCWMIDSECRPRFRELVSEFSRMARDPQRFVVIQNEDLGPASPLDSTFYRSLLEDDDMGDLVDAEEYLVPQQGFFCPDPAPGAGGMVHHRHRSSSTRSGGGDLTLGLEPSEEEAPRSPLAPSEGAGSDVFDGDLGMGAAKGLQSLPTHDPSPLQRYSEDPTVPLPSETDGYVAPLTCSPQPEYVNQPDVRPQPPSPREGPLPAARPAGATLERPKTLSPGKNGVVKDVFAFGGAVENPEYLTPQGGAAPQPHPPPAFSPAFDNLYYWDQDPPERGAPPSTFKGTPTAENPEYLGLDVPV
Chain of EGFR (A767_dupASV) expressing Ba/F3 stable cell line (P00533 with tags, fused parts or gaps DUP767-769): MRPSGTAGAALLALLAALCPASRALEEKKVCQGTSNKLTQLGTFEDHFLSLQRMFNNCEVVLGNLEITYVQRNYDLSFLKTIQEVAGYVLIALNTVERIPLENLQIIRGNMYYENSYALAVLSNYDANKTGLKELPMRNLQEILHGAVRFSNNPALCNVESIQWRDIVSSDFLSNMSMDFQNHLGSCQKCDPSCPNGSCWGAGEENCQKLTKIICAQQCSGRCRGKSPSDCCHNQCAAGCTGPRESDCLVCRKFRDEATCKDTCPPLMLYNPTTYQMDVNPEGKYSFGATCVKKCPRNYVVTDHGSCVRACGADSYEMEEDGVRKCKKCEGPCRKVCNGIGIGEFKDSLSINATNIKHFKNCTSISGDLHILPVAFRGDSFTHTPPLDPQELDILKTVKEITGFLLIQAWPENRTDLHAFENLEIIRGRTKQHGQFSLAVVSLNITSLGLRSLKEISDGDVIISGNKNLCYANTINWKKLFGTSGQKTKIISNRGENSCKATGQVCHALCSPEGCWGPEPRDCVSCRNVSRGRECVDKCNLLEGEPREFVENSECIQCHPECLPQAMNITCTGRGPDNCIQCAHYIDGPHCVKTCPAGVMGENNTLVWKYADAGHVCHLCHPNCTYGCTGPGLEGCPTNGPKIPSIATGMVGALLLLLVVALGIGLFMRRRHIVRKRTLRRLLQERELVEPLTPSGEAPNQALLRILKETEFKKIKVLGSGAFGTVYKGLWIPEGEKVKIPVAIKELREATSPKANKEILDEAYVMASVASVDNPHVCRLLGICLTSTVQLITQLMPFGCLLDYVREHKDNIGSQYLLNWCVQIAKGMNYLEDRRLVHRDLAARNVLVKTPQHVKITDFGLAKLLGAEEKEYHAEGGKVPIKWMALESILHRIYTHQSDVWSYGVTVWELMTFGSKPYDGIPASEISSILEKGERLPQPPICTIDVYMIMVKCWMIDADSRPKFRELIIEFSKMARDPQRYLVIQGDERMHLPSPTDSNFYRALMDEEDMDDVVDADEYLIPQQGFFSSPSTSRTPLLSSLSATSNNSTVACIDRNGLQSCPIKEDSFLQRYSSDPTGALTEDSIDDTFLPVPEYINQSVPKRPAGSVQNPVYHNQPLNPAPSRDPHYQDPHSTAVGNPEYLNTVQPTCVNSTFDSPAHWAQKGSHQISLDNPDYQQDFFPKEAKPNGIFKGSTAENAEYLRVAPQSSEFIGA

C=CC(=O)Nc1cccc(Oc2nc(Nc3cnn(C)c3)ncc2-c2ccc(C(F)(F)F)cc2)c1 [Compound 151, N-(3-((2-((1-methyl-1H-pyrazol-4-yl)amino)-5-(4-(trifluoromethyl)phenyl)pyrimidin-4-yl)oxy)phenyl)acrylamide]
GI50 [1]: 105 nM
IC50 (A431 cells; [5]): 375 nM
GI50 [2]: 354 nM
GI50 [3]: 129 nM
GI50 [4]: 226 nM

C=CC(=O)Nc1ccc(F)c(Nc2nc(Nc3cnn(C4COC4)c3)ncc2-c2ccc(C(F)(F)F)cc2)c1 [Compound 139, N-(4-fluoro-3-((2-((1-(oxetan-3-yl)-1H-pyrazol-4-yl)amino)-5-(4-(trifluoromethyl)phenyl)pyrimidin-4-yl)amino)phenyl)acrylamide]
GI50 [1]: 116 nM
IC50 (A431 cells; [5]): > 10000 nM
GI50 [2]: 690 nM
GI50 [3]: 125 nM
GI50 [4]: 148 nM

C=CC(=O)Nc1ccc(F)c(Nc2nc(Nc3cnn(C)c3)ncc2-c2ccc(OC(F)F)nc2)c1 [Compound 70, N-(3-((5-(6-(difluoromethoxy)pyridin-3-yl)-2-((1-methyl-1H-pyrazol-4-yl)amino)pyrimidin-4-yl)amino)-4-fluorophenyl)acrylamide]
GI50 [1]: 35 nM
IC50 (A431 cells; [5]): 77 nM
GI50 [2]: 123 nM
GI50 [3]: 36 nM
GI50 [4]: 88 nM

C=CC(=O)Nc1ccc(F)c(Nc2nc(Nc3cnn(C)c3)ncc2-c2ccnc(Cl)c2)c1 [Compound 117, N-(3-((5-(2-chloropyridin-4-yl)-2-((1-methyl-1H-pyrazol-4-yl)amino)pyrimidin-4-yl)amino)-4-fluorophenyl)acrylamide]
GI50 [1]: 86 nM
IC50 (A431 cells; [5]): 85 nM
GI50 [2]: 160 nM
GI50 [3]: 57 nM
GI50 [4]: 107 nM

C=CC(=O)Nc1ccc(F)c(Nc2nc(Nc3cnn(C)c3)ncc2-c2ccc(Cl)cc2)c1 [Compound 61, N-(3-((5-(4-chlorophenyl)-2-((1-methyl-1H-pyrazol-4-yl)amino)pyrimidin-4-yl)amino)-4-fluorophenyl)acrylamide]
GI50 [1]: 56 nM
IC50 (A431 cells; [5]): 261 nM
GI50 [2]: 219 nM
GI50 [3]: 99 nM
GI50 [4]: 91 nM

C=CC(=O)Nc1cccc(Nc2nc(Nc3cnn(C)c3)ncc2-c2ccc(C(F)(F)F)nc2)c1 [Compound 73, N-(3-((2-((1-methyl-1H-pyrazol-4-yl)amino)-5-(6-(trifluoromethyl)pyridin-3-yl)pyrimidin-4-yl)amino)phenyl)acrylamide]
GI50 [1]: 39 nM
IC50 (A431 cells; [5]): 252 nM
GI50 [2]: 113 nM
GI50 [3]: 45 nM
GI50 [4]: 100 nM

[2H]C([2H])=CC(=O)Nc1ccc(F)c(Nc2nc(Nc3cnn(C)c3)ncc2-c2ccc(C(F)(F)F)cc2)c1 [Compound 247, N-[4-fluoro-3-({2-[(1-methyl-1H-pyrazol-4-yl)amino]-5-[4-(trifluoromethyl)phenyl]pyrimidin-4-yl}amino)phenyl] (3,3-2H2) prop-2-enamide]
GI50 [1]: 86 nM
IC50 (A431 cells; [6]): 3000 nM
GI50 [2]: 270 nM
GI50 [3]: 123 nM
GI50 [4]: 144 nM

C=CC(=O)Nc1ccc(F)c(Nc2nc(Nc3cnn(C)c3)ncc2-c2cncc(N(C)C)c2)c1 [Compound 116, N-(3-((5-(5-(dimethylamino)pyridin-3-yl)-2-((1-methyl-1H-pyrazol-4-yl)amino)pyrimidin-4-yl)amino)-4-fluorophenyl)acrylamide trifluoroacetate]
GI50 [1]: 108 nM
IC50 (A431 cells; [5]): 108 nM
GI50 [2]: 251 nM
GI50 [3]: 94 nM
GI50 [4]: 136 nM

[2H]C([2H])([2H])n1cc(Nc2ncc(-c3ccc(C(F)(F)F)cc3)c(Nc3cc(NC(=O)C=C)ccc3F)n2)cn1 [Compound 242, N-{4-fluoro-3-[(2-{[1-(^2H3)methyl-1H-pyrazol-4-yl]amino}-5-[4-(trifluoromethyl)phenyl]pyrimidin-4-yl)amino]phenyl}prop-2-enamide]
GI50 [1]: 98 nM
IC50 (A431 cells; [6]): 129 nM
GI50 [2]: 133 nM
GI50 [3]: 101 nM
GI50 [4]: 101 nM

C=CC(=O)Nc1cccc(Nc2nc(Nc3cnn(C)c3)ncc2-c2ccc(C(F)(F)F)cc2)c1 [Compound 111, N-(3-((2-((1-methyl-1H-pyrazol-4-yl)amino)-5-(4-(trifluoromethyl)phenyl)pyrimidin-4-yl)amino)phenyl)acrylamide]
GI50 [1]: 48 nM
IC50 (A431 cells; [5]): 27 nM
GI50 [2]: 138 nM
GI50 [3]: 41 nM
GI50 [4]: 103 nM

C=CC(=O)Nc1ccc(F)c(Nc2nc(Nc3ccc(CN(C)C)cc3)ncc2-c2ccc(C(F)(F)F)cc2)c1 [Compound 45, N-(3-((2-((4-((dimethylamino)methyl)phenyl)amino)-5-(4-(trifluoromethyl)phenyl)pyrimidin-4-yl)amino)-4-fluorophenyl)acrylamide trifluoroacetate]
GI50 [1]: 105 nM
IC50 (A431 cells; [5]): 27 nM
GI50 [2]: 134 nM
GI50 [3]: 238 nM
GI50 [4]: 149 nM

C=CC(=O)Nc1ccc(F)c(Nc2nc(Nc3cnn(C)c3)ncc2-c2ccc(C(F)(F)F)nc2)c1 [Compound 57, N-(4-fluoro-3-((2-((1-methyl-1H-pyrazol-4-yl)amino)-5-(6-(trifluoromethyl)pyridin-3-yl)pyrimidin-4-yl)amino)phenyl)acrylamide]
GI50 [1]: 44 nM
IC50 (A431 cells; [5]): 1940 nM
GI50 [2]: 177 nM
GI50 [3]: 71 nM
GI50 [4]: 82 nM

C=CC(=O)Nc1ccc(F)c(Nc2nc(Nc3cnn(C)c3)ncc2-c2cncc(OC)c2)c1 [Compound 141, N-(4-fluoro-3-((5-(5-methoxypyridin-3-yl)-2-((1-methyl-1H-pyrazol-4-yl)amino)pyrimidin-4-yl)amino)phenyl)acrylamide]
GI50 [1]: 101 nM
IC50 (A431 cells; [5]): 141 nM
GI50 [2]: 201 nM
GI50 [3]: 100 nM
GI50 [4]: 49 nM

C=CC(=O)Nc1ccc(F)c(Nc2nc(Nc3cnn(C)c3)ncc2-c2ccnc(OC)c2)c1 [Compound 68, N-(4-fluoro-3-((5-(2-methoxypyridin-4-yl)-2-((1-methyl-1H-pyrazol-4-yl)amino)pyrimidin-4-yl)amino)phenyl)acrylamide]
GI50 [1]: 101 nM
IC50 (A431 cells; [5]): 223 nM
GI50 [2]: 128 nM
GI50 [3]: 108 nM
GI50 [4]: 107 nM

C=CC(=O)Nc1ccc(F)c(Nc2nc(Nc3cnn(C)c3)ncc2-c2ccccc2)c1 [Compound 93, N-(4-fluoro-3-((2-((1-methyl-1H-pyrazol-4-yl)amino)-5-phenylpyrimidin-4-yl)amino)phenyl)acrylamide]
GI50 [1]: 121 nM
IC50 (A431 cells; [5]): > 10000 nM
GI50 [2]: 465 nM
GI50 [3]: 315 nM
GI50 [4]: 148 nM

C=CC(=O)Nc1ccc(F)c(Nc2nc(Nc3cnn(C)c3)ncc2-c2ccc(N3CCOCC3)cc2)c1 [Compound 94, N-(4-fluoro-3-((2-((1-methyl-1H-pyrazol-4-yl)amino)-5-(4-morpholinophenyl)pyrimidin-4-yl)amino)phenyl)acrylamide]
GI50 [1]: 542 nM
IC50 (A431 cells; [5]): > 10000 nM
GI50 [2]: 1270 nM
GI50 [3]: 109 nM
GI50 [4]: 448 nM

C=CC(=O)Nc1ccc(F)c(Nc2nc(Nc3cnn(C)c3)ncc2-c2ccc(C(F)(F)F)cc2)c1 [Compound 37, N-(4-fluoro-3-((2-((1-methyl-1H-pyrazol-4-yl)amino)-5-(4-(trifluoromethyl)phenyl)pyrimidin-4-yl)amino)phenyl)acrylamide]
GI50 [1]: 34 nM
IC50 (A431 cells; [5]): 185 nM
GI50 [2]: 974 nM
GI50 [3]: 73 nM
GI50 [4]: 85 nM

C=CC(=O)Nc1ccc(F)c(Nc2nc(Nc3cnn(C)c3)ncc2-c2cncc(F)c2)c1 [Compound 69, N-(4-fluoro-3-((5-(5-fluoropyridin-3-yl)-2-((1-methyl-1H-pyrazol-4-yl)amino)pyrimidin-4-yl)amino)phenyl)acrylamide]
GI50 [1]: 11 nM
IC50 (A431 cells; [5]): 65 nM
GI50 [2]: 19 nM
GI50 [3]: 14 nM
GI50 [4]: 21 nM

C=CC(=O)Nc1ccc(F)c(Nc2nc(Nc3cnn(C)c3)ncc2-c2ccc(N(C)C)cc2)c1 [Compound 103, N-(3-((5-(4-(dimethylamino)phenyl)-2-((1-methyl-1H-pyrazol-4-yl)amino)pyrimidin-4-yl)amino)-4-fluorophenyl)acrylamide]
GI50 [1]: 157 nM
IC50 (A431 cells; [5]): 493 nM
GI50 [2]: 461 nM
GI50 [3]: 287 nM
GI50 [4]: 281 nM

C=CC(=O)Nc1cccc(Oc2nc(Nc3cnn(C)c3)ncc2-c2ccc(C)nc2)c1 [Compound 186, N-(3-((2-((1-methyl-1H-pyrazol-4-yl)amino)-5-(6-methylpyridin-3-yl)pyrimidin-4-yl)oxy)phenyl)acrylamide]
GI50 [1]: 114 nM
IC50 (A431 cells; [5]): 170 nM
GI50 [2]: 175 nM
GI50 [3]: 90 nM
GI50 [4]: 106 nM
